Drawing on ChEMBL document CHEMBL1255322, “In vivo therapeutic effect of gatifloxacin on BALB/c mice infected with Nocardia brasiliensis” (Antimicrob Agents Chemother, 2008), this text covers Activity, MIC and Cmax for four molecules.

The subject of data set [1] is Nocardia brasiliensis. The data set is described as follows: Antimicrobial activity against Nocardia brasiliensis HUJEG-1 by broth macrodilution method. Type of data set: functional.
Data set [2] in a line: Cmax in BALB/c mouse serum at 100 mg/kg, sc TID for 4 weeks by HPLC method. Type of data set: ADME, organism-based. Also noted: dose 100 mg/kg, route subcutaneous.
The test system of data set [3] is Nocardia brasiliensis. The data set is described as follows: Antimicrobial activity against Nocardia brasiliensis HUJEG-1 infected in BALB/c mouse assessed as decrease in number of lesions on foot-pad at 100 mg/kg, sc TID for 4 weeks. Also noted: dose 100 mg/kg. Type of data set: functional, organism-based.
The subject of data set [4] is Nocardia brasiliensis. The data set is described as follows: Antimicrobial activity against Nocardia brasiliensis HUJEG-1 infected in BALB/c mouse assessed as decrease in number of lesions on foot-pad at 25 mg/kg, sc TID for 4 weeks. Also noted: dose 25 mg/kg. Type of data set: functional, organism-based.
Data set [5] is described as follows: Cmax in BALB/c mouse serum at 25 mg/kg, sc TID for 4 weeks by HPLC method. Type of data set: ADME, organism-based. Also noted: dose 25 mg/kg, route subcutaneous.

The structures appear in SMILES notation. Values after ≈ are worked out from the molar mass of the structure shown. Active and inactive are the calls of the source.

Consider `COc1c(N2C[C@@H]3CCCN[C@@H]3C2)c(F)cc2c(=O)c(C(=O)O)cn(C3CC3)c12`, for which, in the data set on Nocardia brasiliensis [1], the outcome was Active.
Consider `C[C@H]1NCc2cc(-c3ccc4c(=O)c(C(=O)O)cn(C5CC5)c4c3OC(F)F)ccc21`, for which, in the data set with Nocardia brasiliensis [1], the result was Active.
In general, MIC refers to the smallest concentration in the dilution series that meets the test's criterion for growth inhibition. Lower therefore signals inhibition by little substance. One may read the Cmax as the peak of the concentration-time curve. For `COc1c(N2CCNC(C)C2)c(F)cc2c(=O)c(C(=O)O)cn(C3CC3)c12` (stereo not drawn) [GATIFLOXACIN], in the data set with Nocardia brasiliensis [1], 0.25 µg/mL (≈ 0.666 µM) was the least that counted as inhibitory (MIC). The same molecule registered a Cmax in data set [2] of 18000 ng/mL. In addition, the result in the data set on Nocardia brasiliensis [3] was Active.
`CC(=O)NC[C@H]1CN(c2ccc(N3CCOCC3)c(F)c2)C(=O)O1` [LINEZOLID] displayed an MIC against Nocardia brasiliensis [1] of 0.12 µg/mL (≈ 0.356 µM). Besides, in the data set with Nocardia brasiliensis [4], the outcome was inactive. Further, the Cmax in data set [5] amounted to 50000 ng/mL.
